Source: PubChem BioAssay (NCI)
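Results reflect a 48-hour exposure of cells in 96-well plates to compound at five concentrations. Abbreviation: GI50, concentration required for 50% inhibition of growth. At the TGI there is no net growth.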 Numbered stars: 1 amine (or outer) side, 2 acyl side, 3 side chain; on linkers, the order of the positions; unused ones are H or OH. Bridge positions count the residues as written; N and C are the ends. Square brackets hold non-standard residues; d marks the D form. Peptide text beside a SMILES is read from it. I, II: the chains in the order shown. Actinocin(1to9) = Cc1c2oc3c(C)ccc(C(=O)[*:2])c3nc-2c(C(=O)[*:1])c(N)c1=O; NMeV = CN[CH](C(=O)O)C(C)C; Sar = CNCC(=O)O

Legend:
Test in all cases: NCI-60 cell line screen, 48 h
BT-549 breast = test system: BT-549 breast
HCT-15 colon = test system: HCT-15 colon
HOP-62 NSCLC = test system: HOP-62 NSCLC
HS 578T breast = test system: HS 578T breast
SF-295 CNS = test system: SF-295 CNS
SN12C renal = test system: SN12C renal
SNB-75 CNS = test system: SNB-75 CNS
U251 CNS = test system: U251 CNS
HCC-2998 colon = test system: HCC-2998 colon
SK-OV-3 ovarian = test system: SK-OV-3 ovarian

| Structure (SMILES) | TGI (BT-549 breast) | TGI (HCT-15 colon) | TGI (HOP-62 NSCLC) | TGI (HS 578T breast) | TGI (SF-295 CNS) | TGI (SN12C renal) | TGI (SNB-75 CNS) | TGI (U251 CNS) | TGI (HCC-2998 colon) | TGI (SK-OV-3 ovarian) | GI50 (HCC-2998 colon) | GI50 (HOP-62 NSCLC) | GI50 (SK-OV-3 ovarian) | GI50 (SN12C renal) | GI50 (SNB-75 CNS) | GI50 (U251 CNS) |
| --- | --- | --- | --- | --- | --- | --- | --- | --- | --- | --- | --- | --- | --- | --- | --- | --- |
| OCC1(CNc2cc(Cl)ncn2)CCC1 | > 100 µM | > 100 µM | > 100 µM | > 100 µM | > 100 µM | > 100 µM | > 100 µM | > 100 µM | – | – | – | – | – | – | – | – |
| N#C/C=C\c1ccc(-c2cc(C(F)(F)F)cc(C(F)(F)F)c2)o1 | 76.8 µM | – | 47.3 µM | 54.8 µM | 46 µM | > 100 µM | 39.8 µM | 27.4 µM | > 100 µM | > 100 µM | – | – | – | – | – | – |
| NC(=O)N/N=C/c1ccccc1O | > 100 µM | > 100 µM | > 100 µM | > 100 µM | > 100 µM | – | > 100 µM | > 100 µM | > 100 µM | > 100 µM | – | – | – | – | – | – |
| C=[N+](CNC(=O)CNC(=O)C(Cc1ccccc1)NC(=O)OC(C)(C)C)C(=O)CNC(=O)C(Cc1ccccc1)NC(=O)OC(C)(C)C (stereo not given) | – | > 100 µM | > 100 µM | > 100 µM | > 100 µM | > 100 µM | > 100 µM | – | > 100 µM | > 100 µM | – | – | – | – | – | – |
| Cc1ccc(S(=O)(=O)NC(=O)NCC(=O)O)cc1 | > 100 µM | > 100 µM | > 100 µM | > 100 µM | > 100 µM | > 100 µM | > 100 µM | > 100 µM | – | > 100 µM | – | – | – | – | – | – |
| CC(C)(C)c1cc2c(O)c(c1)COCc1cc(C(C)(C)C)cc(c1O)COCc1cc(C(C)(C)C)cc(c1O)COC2 | > 100 µM | > 100 µM | > 100 µM | – | > 100 µM | – | > 100 µM | > 100 µM | > 100 µM | > 100 µM | – | – | – | – | – | – |
| COc1ccc2oc3c(ccc[n+]3C)c(=O)c2c1 | – | > 100 µM | > 100 µM | > 100 µM | > 100 µM | > 100 µM | > 100 µM | > 100 µM | > 100 µM | > 100 µM | – | – | – | – | – | – |
| NCCSc1nc(N)c2ncn(C3OC(CO)C(O)C3O)c2n1 (stereo not given) | – | > 100 µM | > 100 µM | – | > 100 µM | > 100 µM | > 100 µM | > 100 µM | > 100 µM | > 100 µM | – | – | – | – | – | – |
| CCCC(=O)Oc1cc(OC(=O)CCC)c2c(C)cc(=O)oc2c1 | – | > 100 µM | > 100 µM | > 100 µM | > 100 µM | > 100 µM | > 100 µM | > 100 µM | – | > 100 µM | – | – | – | – | – | – |
| N#CCCN(CCC#N)c1ccc(/C=C2\N=C(c3ccccc3)N(c3ccccc3)C2=O)cc1 | > 100 µM | > 100 µM | > 100 µM | 87.6 µM | > 100 µM | > 100 µM | – | > 100 µM | – | > 100 µM | – | – | – | – | – | – |
| Cc1cc2nc3c(C#N)c4c(c(Nc5ccc(Cl)cc5)n3c2cc1C)CCC4 | 44.8 µM | 36.7 µM | > 100 µM | – | > 100 µM | 34.4 µM | > 100 µM | 32.9 µM | – | > 100 µM | – | – | – | – | – | – |
| COc1ccc(/C=C/C(=O)/C=C(/C=C/c2ccc(OC)c(OC)c2OC)OB(F)F)c(OC)c1OC | – | – | > 100 µM | – | – | > 100 µM | > 100 µM | 8.09 µM | 3.93 µM | > 100 µM | 1.94 µM | 3.89 µM | 3.77 µM | 2.01 µM | 4.84 µM | 0.973 µM |
| O=C(NC(Cc1ccccc1)P(=O)(O)c1ccccc1)OCc1ccccc1 (stereo not given) | > 100 µM | > 100 µM | > 100 µM | > 100 µM | > 100 µM | > 100 µM | > 100 µM | > 100 µM | – | > 100 µM | – | – | – | – | – | – |
| O=c1[nH]c(Br)nc2c(N3CCCCC3)c[nH]c12 | – | > 100 µM | > 100 µM | – | > 100 µM | > 100 µM | > 100 µM | > 100 µM | – | > 100 µM | – | – | – | – | – | – |
| CCC(C)C1NC(=O)C(NC(=O)c2c3nc4c(C(=O)NC5C(=O)NC(C(C)C)C(=O)N6CCCC6C(=O)N(C)CC(=O)N(C)C(C(C)C)C(=O)OC5C)ccc(C)c4oc-3c(C)c(=O)c2N)C(C)OC(=O)C(C(C)C)N(C)C(=O)CN(C)C(=O)C2CCCN2C1=O (stereo not given) (I: TIP[Sar][NMeV] / II: TVP[Sar][NMeV]; ester I:1-I:C, II:1-II:C; linker I:N-II:N via Actinocin(1to9); configuration not given here) | 0.0627 µM | 14.2 µM | – | 0.363 µM | – | 0.498 µM | 0.579 µM | 10.1 µM | – | 13.2 µM | – | – | – | – | – | – |
| C#CC1(O)CC(c2ccccc2)N(C)C(c2ccccc2)C1 (stereo not given) | – | > 100 µM | > 100 µM | – | > 100 µM | > 100 µM | > 100 µM | > 100 µM | > 100 µM | > 100 µM | – | – | – | – | – | – |
| CC1CC/C(=C\c2ccc(F)cc2)C2=C1C(c1ccc(F)cc1)n1c(s/c(=C\c3ccc(Cl)cc3)c1=O)=N2 (stereo not given) | – | > 100 µM | > 100 µM | > 100 µM | – | > 100 µM | – | > 100 µM | – | > 100 µM | – | – | – | – | – | – |
| Cc1ccc(C)c(C(=N)c2ccccc2Cc2ccccc2)c1 | 83.7 µM | > 100 µM | 61.5 µM | 20.7 µM | 56 µM | 32.2 µM | – | 30.4 µM | 31.7 µM | 79.1 µM | – | – | – | – | – | – |
| O=c1[nH]c(=S)c2[nH]c(=O)n(-c3ccccc3)c2[nH]1 | > 100 µM | > 100 µM | > 100 µM | > 100 µM | > 100 µM | > 100 µM | – | > 100 µM | > 100 µM | – | – | – | – | – | – | – |
| Cc1ccc(C(=O)C(C)N)cc1C (stereo not given) | – | – | > 100 µM | – | > 100 µM | > 100 µM | > 100 µM | > 100 µM | > 100 µM | > 100 µM | – | – | – | – | – | – |
| CC(C)C(=O)CP(=O)(O)O | > 100 µM | > 100 µM | > 100 µM | > 100 µM | > 100 µM | > 100 µM | > 100 µM | > 100 µM | – | > 100 µM | – | – | – | – | – | – |
| O=Cc1ccc2[nH]c(=O)oc2c1 | > 100 µM | > 100 µM | > 100 µM | > 100 µM | > 100 µM | > 100 µM | – | > 100 µM | – | > 100 µM | – | – | – | – | – | – |
| CCc1ncc(C(C)(O)c2ccccc2)n1Cc1ccccc1 (stereo not given) | > 100 µM | > 100 µM | – | > 100 µM | > 100 µM | 60.6 µM | > 100 µM | > 100 µM | – | > 100 µM | – | – | – | – | – | – |
